According to ChEMBL document CHEMBL6109116, “Peripherally Restricted Fused Heterocyclic Peptidomimetic Multifunctional Opioid Agonists as Novel, Potent Analgesics” (ACS Med Chem Lett, 2025):
The source made the active and inactive calls. The calls are words filed in the database; no cut-off is given here.

What was measured:
[1] = organism: Mus musculus; test: Acute antinociceptive activity in male C57BL/6J mouse measured after 30 min by 55 degreeC warm-water tail-withdrawal assay; conditions: 0.5 h
[2] = test system: Mus musculus; test: Antinociceptive activity in male C57BL/6J mouse preadministered with compound for 10 mins followed by acetic acid administration and measured after 15 to 30 min by Acetic acid stretching assay (AcAS); format: functional; conditions: time 25-40 min
[3] = Selectivity ratio of ED50 for antinociceptive activity in male C57BL/6J mouse at 10 mg/kg, ip measured after 10 min by 55 degreeC warm-water tail-withdrawal assay to ED50 for antinociceptive activity in male C57BL/6J mouse preadministered with compound for 10 mins followed by acetic acid administration and measured after 15 to 30 min by Acetic acid stretching assay (AcAS); format: functional
[4] = biological target: Delta-type opioid receptor (Rattus norvegicus, UniProt P33533); test: Displacement of [3H]-DPDPE from rat cortical membrane DOR assessed as inhibition constant incubated for 2.5 hrs by Wallac Betaplate liquid scintillation counting analysis; format: cell membranes, Cortex
[5] = biological target: Mu-type opioid receptor (Rattus norvegicus, UniProt P33535); test: Displacement of [3H]-DAMGO from rat cortical membrane MOR assessed as inhibition constant incubated for 2 hrs by Wallac Betaplate liquid scintillation counting analysis; format: cell membranes, Cortex
[6] = biological target: Kappa-type opioid receptor (Cavia porcellus, UniProt P41144); test: Displacement of [3H]U69593 from guinea pig KOR assessed as inhibition constant incubated for 2 hrs by Wallac Betaplate liquid scintillation counting analysis
[7] = biological target: Mu-type opioid receptor (Rattus norvegicus) (UniProt P33535); test: Partial agonist activity at rat MOR extracted from CHO cell membrane assessed as stimulation of [35S]GTPgammaS binding at 1 to 10 uM incubated for 60 mins by liquid scintillation counting assay; format: functional, cell membranes; conditions: dose 1-10 µM
[8] = test system: Mus musculus; test: Antinociceptive activity in wild type male C57BL/6J mouse model at 10 nmol, ICV preadministered with naltrindole for 20 mins followed by compound administration for 10 mins; format: functional, organism-based
[9] = test system: Mus musculus; test: Antinociceptive activity in male C57BL/6J mouse assessed as peripheral restriction at 30 mg/kg, ip pre-treated with naloxone methiodide at 30 nmol, ICV for 30 min by 55 degreeC warm-water tail-withdrawal assay; format: functional
[10] = Toxicity in C57BL/6J mouse assessed as respiratory depression at 30 mg/kg, ip measured after 20 mins; format: organism-based; conditions: in vivo
[11] = test system: Mus musculus; test: Antinociceptive activity in male C57BL/6J mouse at 30 mg/kg, po by 55 degreeC warm-water tail-withdrawal assay; format: functional, organism-based; conditions: time <= 60.0 min
[12] = test system: Mus musculus; test: Antinociceptive activity in male C57BL/6J mouse assessed as peripheral restriction at 30 mg/kg, ip by 55 degreeC warm-water tail-withdrawal assay; format: functional
[13] = Toxicity in C57BL/6J mouse assessed as increase in ambulation at 30 mg/kg, ip measured up to 120 min; format: organism-based; conditions: in vivo, 2 h
[14] = organism: Mus musculus; test: Antinociceptive activity in male C57BL/6J mouse measured after 10 min by 55 degreeC warm-water tail-withdrawal assay; format: functional
[15] = biological target: Delta-type opioid receptor (Mus musculus) (UniProt P32300); test: Partial agonist activity at mouse DOR extracted from CHO cell membrane assessed as stimulation of [35S]GTPgammaS binding at 1 to 10 uM incubated for 60 mins by liquid scintillation counting assay; format: functional, cell membranes; conditions: filed as partial agonist, dose 1-10 µM
[16] = test system: Mus musculus; test: Antinociceptive activity in KOR knockout male C57BL/6J mouse model at 10 nmol, ICV administered for 10 mins by 55 degreeC warm-water tail-withdrawal assay; format: functional, organism-based
[17] = test system: Mus musculus; test: Antinociceptive activity in male C57BL/6J mouse at 10 nmol, ICV administered for 8 hrs by 55 degreeC warm-water tail-withdrawal assay; format: functional, organism-based
[18] = Toxicity in C57BL/6J mouse assessed as effect on locomotor activity at 30 mg/kg, ip measured up to 120 min; format: organism-based; conditions: in vivo, 2 h
[19] = test system: Mus musculus; test: Antinociceptive activity in male C57BL/6J mouse assessed as peripheral restriction at 30 mg/kg, ip pre-treated with naloxone methiodide at 30 mg/kg, SC for 30 min by 55 degreeC warm-water tail-withdrawal assay; format: functional
[20] = test system: Mus musculus; test: Antinociceptive activity in MOR knockout male C57BL/6J mouse model at 10 nmol, ICV administered for 10 mins by 55 degreeC warm-water tail-withdrawal assay; format: functional, organism-based
[21] = biological target: Kappa-type opioid receptor (Homo sapiens) (UniProt P41145); test: Partial agonist activity at human KOR extracted from CHO cell membrane assessed as stimulation of [35S]GTPgammaS binding at 1 to 10 uM incubated for 60 mins by liquid scintillation counting assay; format: functional, cell membranes; conditions: filed as partial agonist, dose 1-10 µM
[22] = test system: Mus musculus; test: Antinociceptive activity in male C57BL/6J mouse assessed as peripheral restriction at 15 mg/kg, ip pre-treated with naloxone methiodide at 30 nmol, ICV for 30 min by 55 degreeC warm-water tail-withdrawal assay; format: functional
[23] = test system: Mus musculus; test: Antinociceptive activity in male C57BL/6J mouse at 15 mg/kg, po by 55 degreeC warm-water tail-withdrawal assay; format: functional, organism-based; conditions: time <= 60.0 min
[24] = test system: Mus musculus; test: Antinociceptive activity in male C57BL/6J mouse assessed as peripheral restriction at 15 mg/kg, ip by 55 degreeC warm-water tail-withdrawal assay; format: functional
[25] = Toxicity in C57BL/6J mouse assessed as respiratory depression at 15 mg/kg, ip measured after 20 mins; format: organism-based; conditions: in vivo
[26] = test system: Mus musculus; test: Antinociceptive activity in male C57BL/6J mouse assessed as peripheral restriction at 15 mg/kg, ip pre-treated with naloxone methiodide at 30 mg/kg, SC for 30 min by 55 degreeC warm-water tail-withdrawal assay; format: functional
[27] = Toxicity in C57BL/6J mouse assessed as effect on locomotor activity at 15 mg/kg, ip measured up to 120 min; format: organism-based; conditions: in vivo, 2 h
[28] = Toxicity in C57BL/6J mouse assessed as increase in ambulation at 15 mg/kg, ip measured up to 120 min; format: organism-based; conditions: in vivo, 2 h
[29] = Toxicity in male C57BL/6J mouse assessed as lethality up to 30 mg/kg, ip measured after 10 min; format: organism-based; conditions: in vivo
[30] = test system: Mus musculus; test: Antinociceptive activity in male C57BL/6J mouse at 10 mg/kg, ip measured after 10 min by 55 degreeC warm-water tail-withdrawal assay; format: functional, organism-based
[31] = biological target: Delta-type opioid receptor (Mus musculus) (UniProt P32300); test: Agonist activity at mouse DOR extracted from CHO cell membrane assessed as stimulation of [35S]GTPgammaS binding at 1 to 10 uM incubated for 60 mins by liquid scintillation counting assay; format: functional, cell membranes; conditions: filed as agonist, dose 1-10 µM
[32] = biological target: Mu-type opioid receptor (Rattus norvegicus) (UniProt P33535); test: Partial agonist activity at rat MOR extracted from CHO cell membrane assessed as stimulation of [35S]GTPgammaS binding at 10 uM incubated for 60 mins by liquid scintillation counting assay; format: functional, cell membranes; conditions: filed as partial agonist

Delta-type opioid receptor, sequence (P33533 whole entry): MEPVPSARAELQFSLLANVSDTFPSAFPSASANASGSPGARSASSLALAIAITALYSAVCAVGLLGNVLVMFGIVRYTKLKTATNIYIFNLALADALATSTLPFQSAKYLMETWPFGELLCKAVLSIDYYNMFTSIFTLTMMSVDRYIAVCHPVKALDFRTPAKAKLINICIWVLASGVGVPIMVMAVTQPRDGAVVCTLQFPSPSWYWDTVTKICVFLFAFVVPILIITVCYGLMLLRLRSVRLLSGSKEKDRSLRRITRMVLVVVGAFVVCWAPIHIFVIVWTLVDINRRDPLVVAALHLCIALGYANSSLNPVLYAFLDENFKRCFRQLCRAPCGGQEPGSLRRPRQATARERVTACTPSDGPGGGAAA
Delta-type opioid receptor (Mus musculus), sequence (P32300 whole entry): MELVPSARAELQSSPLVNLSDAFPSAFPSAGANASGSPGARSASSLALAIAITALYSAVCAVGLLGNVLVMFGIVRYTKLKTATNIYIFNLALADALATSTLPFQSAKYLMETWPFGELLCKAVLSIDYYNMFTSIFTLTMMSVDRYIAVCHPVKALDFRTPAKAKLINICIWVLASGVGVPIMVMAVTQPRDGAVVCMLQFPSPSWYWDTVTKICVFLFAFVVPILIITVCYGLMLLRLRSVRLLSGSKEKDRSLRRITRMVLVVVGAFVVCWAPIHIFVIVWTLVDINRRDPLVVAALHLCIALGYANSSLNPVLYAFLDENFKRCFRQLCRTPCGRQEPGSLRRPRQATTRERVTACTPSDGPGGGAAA
Kappa-type opioid receptor (Homo sapiens), sequence (P41145 whole entry): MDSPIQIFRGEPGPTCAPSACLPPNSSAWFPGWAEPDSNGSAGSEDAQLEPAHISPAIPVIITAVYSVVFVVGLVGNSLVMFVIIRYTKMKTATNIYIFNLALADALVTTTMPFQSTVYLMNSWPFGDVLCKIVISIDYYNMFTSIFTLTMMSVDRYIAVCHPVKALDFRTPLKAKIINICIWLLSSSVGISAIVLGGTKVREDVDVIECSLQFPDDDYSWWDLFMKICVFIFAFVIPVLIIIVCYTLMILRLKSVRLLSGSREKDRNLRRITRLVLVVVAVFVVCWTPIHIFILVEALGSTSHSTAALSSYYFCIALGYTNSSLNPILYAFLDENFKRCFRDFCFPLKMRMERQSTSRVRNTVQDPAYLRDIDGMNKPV
Kappa-type opioid receptor, sequence (P41144 whole entry): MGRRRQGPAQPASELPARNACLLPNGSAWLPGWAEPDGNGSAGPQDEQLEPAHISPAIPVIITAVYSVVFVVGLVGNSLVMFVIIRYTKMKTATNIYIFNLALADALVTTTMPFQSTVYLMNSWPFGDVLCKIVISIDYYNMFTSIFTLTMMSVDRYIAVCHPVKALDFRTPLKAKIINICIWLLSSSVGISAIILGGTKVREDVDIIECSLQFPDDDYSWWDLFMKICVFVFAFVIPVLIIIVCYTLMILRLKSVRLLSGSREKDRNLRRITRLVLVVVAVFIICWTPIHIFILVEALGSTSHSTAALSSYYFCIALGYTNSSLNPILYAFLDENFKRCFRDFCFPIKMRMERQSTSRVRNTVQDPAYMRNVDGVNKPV
Mu-type opioid receptor (Rattus norvegicus), sequence (P33535 whole entry): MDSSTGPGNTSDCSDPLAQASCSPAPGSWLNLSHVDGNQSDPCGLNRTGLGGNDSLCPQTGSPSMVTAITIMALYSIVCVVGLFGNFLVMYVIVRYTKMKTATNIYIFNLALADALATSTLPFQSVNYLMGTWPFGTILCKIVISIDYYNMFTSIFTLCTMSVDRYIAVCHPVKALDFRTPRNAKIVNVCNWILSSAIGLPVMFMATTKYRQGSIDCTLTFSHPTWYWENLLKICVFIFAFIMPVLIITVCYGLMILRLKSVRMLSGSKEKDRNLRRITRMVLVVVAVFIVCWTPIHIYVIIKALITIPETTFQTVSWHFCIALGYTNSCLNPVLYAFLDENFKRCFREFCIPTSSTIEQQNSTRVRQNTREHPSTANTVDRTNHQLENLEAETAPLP
Mu-type opioid receptor, sequence (P33535 whole entry): as above

With `CN1CC[C@]23c4c5ccc(O)c4O[C@H]2[C@@H](O)C=C[C@H]3[C@H]1C5` [MORPHINE] the ED50 [1] was 3.37 mg/kg, the ED50 [2] was 0.9 mg/kg and the “Ratio ED50” value [3] was 3.75.

Molecule `CC(C)(C)c1ccc(S(=O)(=O)NCCN2C(=N)N([C@@H](Cc3ccc(O)cc3)CN3C(=N)NC[C@@H]3CCCNC(=N)N)C[C@@H]2CCCNC(=N)N)cc1` has a Ki [4] of 84 nM, a Ki [5] of 458 nM and a Ki [6] of 49 nM.

`CC(C)[C@H]1CN=C2C=C3N(CCN4CCOCC4)[C@@H](Cc4ccc(O)cc4)CN3[C@@H](Cc3ccc(O)cc3)CN21` showed a Ki [4] of 11 nM, a Ki [5] of 51 nM and a Ki [6] of 41 nM.

`CC(C)C[C@H]1CN([C@@H](Cc2ccc(O)cc2)CN2C(=N)NC[C@@H]2CCCNC(=N)N)C(=N)N1CCNS(=O)(=O)c1ccc(C(C)(C)C)cc1` showed a Ki [4] of 1 nM, a Ki [5] of 120 nM and a Ki [6] of 48 nM.

With `CC(C)[C@H]1CN=C2C=C3N(CCc4ccccc4)CC[C@H](N(C)C)CN3[C@@H](Cc3ccc(O)cc3)CN21` the Activity [7] was “Not active; No Significant Activity”, the Activity [8] was “inactive” and the Activity [9] was 59.1%. The Activity [10] was “Non-toxic”, the Activity [11] was “Time-dependent-effect” and the Activity [12] was 87.9%. The Ki [4] was 20 nM, the Activity [13] was “Non-toxic” and the Ki [5] was 430 nM. For the same molecule, the ED50 [14] was 14 mg/kg, the ED50 [2] was 0.67 mg/kg and the Activity [15] was “Active; Weak Partial Agonism Observed”. For the same molecule, the Activity [16] was “inactive”, the Ki [6] was 25 nM and the Activity [17] was “Active; Comparable To Morphine And U50,489”. For the same molecule, the Activity [18] was “Non-toxic”, the Activity [19] was 3.5% and the Activity [20] was “inactive”. The Activity [21] was “Active” and the “Ratio ED50” value [3] was 20.95.

In the case of `CC(C)[C@H]1CN=C2C=C3N4C[C@H](O)C[C@H]4CN3[C@@H](Cc3ccc(O)cc3)CN21`, the Ki [4] is reported as 34 nM, the Ki [5] is reported as 254 nM and the Ki [6] is reported as 16 nM.

For `CC(C)C[C@H]1CN2C(=CC3=NC[C@H](CCN(C)C)N3C[C@@H]2Cc2ccc(O)cc2)N1CCc1ccccc1`, the Activity [7] was “Not active; No Significant Activity”, the Activity [8] was “inactive” and the Activity [22] was 42%. The Ki [4] was 5 nM, the Activity [23] was “Time-dependent-effect” and the Ki [5] was 212 nM. For the same molecule, the ED50 [14] was 2.19 mg/kg, the Activity [24] was 96.3% and the ED50 [2] was 0.2 mg/kg. The Activity [15] was “Active; Weak Partial Agonism Observed”, the Activity [25] was “Non-toxic” and the Activity [16] was “inactive”. The Activity [26] was 1.2%, the Ki [6] was 24 nM and the Activity [17] was “Active; Comparable To Morphine And U50,488”. The Activity [27] was “Non-toxic”, the Activity [20] was “inactive” and the Activity [28] was “Non-toxic”. For the same molecule, the “Ratio ED50” value [3] was 10.73.

`CC(C)C[C@H]1CN2C(=CC3=NC[C@H](CC(C)C)N3C[C@@H]2Cc2ccc(O)cc2)N1CCN1CCOCC1` showed a Ki [4] of 16 nM, a Ki [5] of 157 nM and a Ki [6] of 15 nM.

`CC(C)(C)c1ccc(S(=O)(=O)NCCN2C(=N)N([C@@H](CCCNC(=N)N)CN3C(=N)NC[C@@H]3CCCNC(=N)N)C[C@@H]2CCCNC(=N)N)cc1` showed a Ki [4] of 7 nM, a Ki [5] of 340 nM and a Ki [6] of 93 nM.

Molecule `CC(C)C[C@H]1CN=C2C=C3N4CCC[C@H]4CN3[C@@H](Cc3ccc(O)cc3)CN21` has a Ki [4] of 10 nM, a Ki [5] of 169 nM and a Ki [6] of 40 nM.

`CC(C)C[C@H]1CN=C2C=C3N(CCN4CCOCC4)[C@@H](Cc4ccc(O)cc4)CN3[C@@H](Cc3ccc(O)cc3)CN21` gave a Ki [4] of 42 nM, a Ki [5] of 108 nM and a Ki [6] of 20 nM.

`CC(C)C[C@H]1CN2C(=CC3=NC[C@@H](C(C)C)N3C[C@H]2Cc2ccc(O)cc2)N1CCc1ccccc1` showed a Ki [4] of 1 nM and a Ki [6] of 43 nM.

With `CC(C)[C@H]1CN=C2C=C3N(CCc4ccccc4)[C@@H](CCN(C)C)CN3[C@@H](Cc3ccc(O)cc3)CN21` the Ki [4] was 8 nM, the Ki [5] was 34 nM and the Ki [6] was 20 nM.

For `CC(C)C[C@H]1CN2C(=CC3=NC[C@H](CN(C)C)N3C[C@@H]2Cc2ccc(O)cc2)N1CCc1ccccc1`, the Activity [7] was “Not active; No Significant Activity”, the Activity [8] was “inactive” and the Activity [29] was “Toxic”. The Ki [4] was 5 nM, the Activity [30] was “Active; Minimal Antinociception Observed” and the Ki [5] was 100 nM. For the same molecule, the Activity [31] was “Active”, the Activity [16] was “inactive” and the Ki [6] was 47 nM. The Activity [17] was “Active; Comparable To Morphine And U50,490”, the Activity [20] was “inactive” and the Activity [21] was “Active”.

With `CN1CCN(CCN2C(=N)N([C@@H](CCCNC(=N)N)CN3C(=N)NC[C@@H]3Cc3ccc(O)cc3)C[C@@H]2Cc2ccc(O)cc2)CC1` the Activity [8] was “inactive”, the Activity [22] was 10.1% and the Ki [4] was 40 nM. The Activity [32] was “Active”, the Activity [23] was “Time-dependent-effect” and the Ki [5] was 197 nM. The ED50 [14] was 3.9 mg/kg, the Activity [24] was 89.7% and the ED50 [2] was 4.97 mg/kg. For the same molecule, the Activity [15] was “Active; Weak Partial Agonism Observed”, the Activity [25] was “Non-toxic” and the Activity [16] was “inactive”. For the same molecule, the Activity [26] was 2.5%, the Ki [6] was 87 nM and the Activity [17] was “Active; Comparable To Morphine And U50,491”. For the same molecule, the Activity [27] was “Non-toxic”, the Activity [20] was “inactive” and the Activity [21] was “Active”. The Activity [28] was “Non-toxic” and the “Ratio ED50” value [3] was 0.78.

`CC(C)[C@H]1CN=C2C=C3N(CCc4ccccc4)[C@@H](CN(C)C)CN3[C@@H](Cc3ccc(O)cc3)CN21` gave a Ki [4] of 4 nM, a Ki [5] of 26 nM and a Ki [6] of 37 nM.
